Laboratory results taken from patent US10479780B2, “Aminopyrazole derivatives” (Chugai Seiyaku Kabushiki Kaisha, priority 2015, dated 2019).

What was measured:
Assay type in all cases: biochemical
human Yes1 enzyme = molecular target: T1, human Yes1 enzyme (Homo sapiens, UniProt P07947); assay: Yes1 enzyme inhibitory activity (time-resolved fluorometry, biotinylated peptide phosphorylation); details: biotinylated peptide phosphorylation, read-out: YES_IC50
T1 construct: made in house
Procedure, shortened: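 Inhibition was expressed against a compound-free control to give IC50, using TR-FRET read-out (Eu-cryptate anti-pTyr antibody, streptavidin-XL665).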

human Src enzyme = molecular target: T2, human Src enzyme (Homo sapiens, UniProt P12931); assay: Src enzyme inhibitory activity (time-resolved fluorometry, biotinylated peptide phosphorylation); details: biotinylated peptide phosphorylation, read-out: SRC_IC50
T2 construct: purchased Carna Biosciences, Inc. 08-173
Procedure, shortened: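 Compounds were tested for blocking tyrosine phosphorylation of a biotinylated peptide substrate by recombinant human Src. Phosphorylated product was quantified by time-resolved fluorometry using europium cryptate and XL665 conjugates, and IC50 was calculated against the compound-free control.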

human Lck enzyme = molecular target: T3, human Lck enzyme (Homo sapiens, UniProt P06239); assay: Lck enzyme inhibitory activity (time-resolved fluorometry, biotinylated peptide phosphorylation); details: biotinylated peptide phosphorylation, read-out: LCK_IC50
T3 construct: purchased Carna Biosciences, Inc. 08-170
Procedure, shortened: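 Readout pairs a europium cryptate-labelled anti-phosphotyrosine antibody with XL665-streptavidin, measured by time-resolved fluorescence. IC50 derived from percent inhibition against untreated controls.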

T3 sequence (P06239 whole entry): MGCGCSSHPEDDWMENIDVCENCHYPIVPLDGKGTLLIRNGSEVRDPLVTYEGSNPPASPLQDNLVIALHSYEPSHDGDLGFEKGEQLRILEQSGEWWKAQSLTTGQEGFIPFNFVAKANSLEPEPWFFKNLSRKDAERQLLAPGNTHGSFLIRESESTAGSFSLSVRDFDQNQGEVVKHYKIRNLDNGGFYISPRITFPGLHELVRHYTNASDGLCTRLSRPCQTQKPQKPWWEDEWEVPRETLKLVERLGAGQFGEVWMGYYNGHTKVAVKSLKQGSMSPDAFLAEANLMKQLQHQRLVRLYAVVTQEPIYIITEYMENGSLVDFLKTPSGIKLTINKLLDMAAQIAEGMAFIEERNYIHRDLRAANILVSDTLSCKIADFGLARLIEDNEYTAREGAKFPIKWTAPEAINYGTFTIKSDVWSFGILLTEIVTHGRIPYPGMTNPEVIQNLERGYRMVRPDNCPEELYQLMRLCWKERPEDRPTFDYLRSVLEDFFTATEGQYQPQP
T2 sequence (P12931 whole entry): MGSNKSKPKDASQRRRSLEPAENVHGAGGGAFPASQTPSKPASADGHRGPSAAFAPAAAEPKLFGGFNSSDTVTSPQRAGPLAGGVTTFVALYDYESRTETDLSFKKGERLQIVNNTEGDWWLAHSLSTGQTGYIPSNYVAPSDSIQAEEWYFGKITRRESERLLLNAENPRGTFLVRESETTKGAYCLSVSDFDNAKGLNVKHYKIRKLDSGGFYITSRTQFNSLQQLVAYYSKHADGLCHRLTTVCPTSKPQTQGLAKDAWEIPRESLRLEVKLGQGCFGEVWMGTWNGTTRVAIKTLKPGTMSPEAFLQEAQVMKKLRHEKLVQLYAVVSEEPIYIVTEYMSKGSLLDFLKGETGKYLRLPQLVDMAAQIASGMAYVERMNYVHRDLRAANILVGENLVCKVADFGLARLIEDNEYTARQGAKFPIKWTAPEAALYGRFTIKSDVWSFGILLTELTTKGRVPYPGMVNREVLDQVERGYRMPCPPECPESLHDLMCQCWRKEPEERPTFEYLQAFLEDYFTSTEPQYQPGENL
T1 sequence (P07947 whole entry): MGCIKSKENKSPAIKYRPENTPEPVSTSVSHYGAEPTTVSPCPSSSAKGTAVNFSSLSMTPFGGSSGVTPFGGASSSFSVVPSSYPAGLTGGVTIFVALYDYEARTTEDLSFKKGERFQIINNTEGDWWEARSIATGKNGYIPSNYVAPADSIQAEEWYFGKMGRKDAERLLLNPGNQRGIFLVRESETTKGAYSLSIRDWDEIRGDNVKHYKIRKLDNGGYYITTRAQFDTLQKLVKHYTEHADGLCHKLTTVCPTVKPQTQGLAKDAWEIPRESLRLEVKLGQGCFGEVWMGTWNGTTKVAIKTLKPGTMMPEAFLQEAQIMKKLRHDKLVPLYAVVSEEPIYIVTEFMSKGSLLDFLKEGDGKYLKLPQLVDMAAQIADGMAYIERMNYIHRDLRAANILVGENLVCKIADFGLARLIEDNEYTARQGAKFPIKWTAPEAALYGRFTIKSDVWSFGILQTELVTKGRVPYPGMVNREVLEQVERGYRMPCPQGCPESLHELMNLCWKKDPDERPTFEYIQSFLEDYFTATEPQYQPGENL

| IC50 (human Yes1 enzyme) | IC50 (human Src enzyme) | IC50 (human Lck enzyme) | Compound |
| --- | --- | --- | --- |
| 4.9 nM | 190 nM | 20 nM | Cc1cc(Oc2c(F)cccc2F)ncc1-n1ncc(C(=O)c2cc3cc(F)c(N4C(=O)N[C@@H](C(C)C)C4=O)cc3[nH]2)c1N [Example 5-1-431, (5S)-3-[2-[5-amino-1-[6-(2,6-difluorophenoxy)-4-methylpyridin-3-yl]pyrazole-4-carbonyl]-5-fluoro-1H-indol-6-yl]-5-propan-2-ylimidazolidine-2,4-dione] |
| 3.8 nM | 96 nM | 7.7 nM | Cc1cc(Oc2c(F)cccc2F)ncc1-n1ncc(C(=O)c2cc3cc(F)c(N4C(=O)[C@@H]5CCCN5C4=O)cc3[nH]2)c1N [Example 5-1-432, (7aS)-2-[2-[5-amino-1-[6-(2,6-difluorophenoxy)-4-methylpyridin-3-yl]pyrazole-4-carbonyl]-5-fluoro-1H-indol-6-yl]-5,6,7,7a-tetrahydropyrrolo[1,2-c]imidazole-1,3-dione] |
| 1.2 nM | 59 nM | 4.8 nM | Cc1cc(Oc2c(F)cccc2F)ncc1-n1ncc(C(=O)c2cc3cc(F)c(N4C(=O)[C@@H]5C[C@@H](O)CN5C4=O)cc3[nH]2)c1N [Example 5-1-433, (6R,7aS)-2-[2-[5-amino-1-[6-(2,6-difluorophenoxy)-4-methylpyridin-3-yl]pyrazole-4-carbonyl]-5-fluoro-1H-indol-6-yl]-6-hydroxy-5,6,7,7a-tetrahydropyrrolo[1,2-c]imidazole-1,3-dione] |
| 0.44 nM | 15 nM | 4.1 nM | Cc1cc2cc(C(=O)c3cnn(-c4ccc(Oc5ccccc5F)cc4C)c3N)[nH]c2cc1N1C(=O)CNC1=O [Example 5-1-434, 3-[2-[5-amino-1-[4-(2-fluorophenoxy)-2-methylphenyl]pyrazole-4-carbonyl]-5-methyl-1H-indol-6-yl]imidazolidine-2,4-dione] |
| 2 nM | 120 nM | 21 nM | Cc1cc2cc(C(=O)c3cnn(-c4ccc(Oc5ccccc5F)cc4C)c3N)[nH]c2cc1N1C(=O)NC(C)(C(F)(F)F)C1=O (stereo not drawn) [Example 5-1-435, 3-[2-[5-amino-1-[4-(2-fluorophenoxy)-2-methylphenyl]pyrazole-4-carbonyl]-5-methyl-1H-indol-6-yl]-5-methyl-5-(trifluoromethyl) imidazolidine-2,4-dione] |
| 1.7 nM | 230 nM | 35 nM | Cc1cc(Oc2ccccc2F)ccc1-n1ncc(C(=O)c2cc3cc(F)c(N4C(=O)N[C@@H](Cc5ccccc5)C4=O)cc3[nH]2)c1N [Example 5-1-436, (5S)-3-[2-[5-amino-1-[4-(2-fluorophenoxy)-2-methylphenyl]pyrazole-4-carbonyl]-5-fluoro-1H-indol-6-yl]-5-benzylimidazolidine-2,4-dione] |
| 0.79 nM | 40 nM | 7.8 nM | Cc1cc(Oc2ccccc2F)ccc1-n1ncc(C(=O)c2cc3cc(F)c(N4C(=O)NC5(CCOCC5)C4=O)cc3[nH]2)c1N [Example 5-1-437, 3-[2-[5-amino-1-[4-(2-fluorophenoxy)-2-methylphenyl]pyrazole-4-carbonyl]-5-fluoro-1H-indol-6-yl]-8-oxa-1,3-diazaspiro[4.5]decane-2,4-dione] |
| 1.9 nM | 120 nM | 15 nM | Cc1cc(Oc2ccccc2F)ccc1-n1ncc(C(=O)c2cc3cc(F)c(N4C(=O)NC5(CCCC5)C4=O)cc3[nH]2)c1N [Example 5-1-438, 3-[2-[5-amino-1-[4-(2-fluorophenoxy)-2-methylphenyl]pyrazolo-4-carbonyl]-5-fluoro-1H-indol-6-yl]-1,3-diazaspiro[4.4]nonane-2,4-dione] |
| 7.3 nM | 690 nM | 310 nM | COc1cccc(S(=O)(=O)Nc2cc3[nH]c(C(=O)c4cnn(-c5cnc(Oc6ccccc6F)cc5C)c4N)cc3cc2C)c1 [Example 5-1-439, N-[2-[5-amino-1-[6-(2-fluorophenoxy)-4-methylpyridin-3-yl]pyrazole-4-carbonyl]-5-methyl-1H-indol-6-yl]-3-methoxybenzenesulfonamide] |
| 3.7 nM | 440 nM | 130 nM | Cc1cc2cc(C(=O)c3cnn(-c4cnc(Oc5ccccc5F)cc4C)c3N)[nH]c2cc1NS(=O)(=O)c1cccc(C#N)c1 [Example 5-1-440, N-[2-[5-amino-1-[6-(2-fluorophenoxy)-4-methylpyridin-3-yl]pyrazole-4-carbonyl]-5-mothyl-1H-indol-6-yl]-3-cyanobenzenesulfonamide] |
| 1.8 nM | 280 nM | 73 nM | Cc1cc2cc(C(=O)c3cnn(-c4cnc(Oc5ccccc5F)cc4C)c3N)[nH]c2cc1NS(=O)(=O)c1cccnc1 [Example 5-1-441, N-[2-[5-amino-1-[6-(2-fluorophenoxy)-4-methylpyridin-3-yl]pyrazole-4-carbonyl]-5-methyl-1H-indol-6-yl]pyridine-3-sulfonamide] |
| 1.2 nM | 21 nM | 4.9 nM | Cc1cc2cc(C(=O)c3cnn(-c4cnc(Oc5c(F)cccc5F)cc4C)c3N)[nH]c2cc1N1C(=O)CNC1=O [Example 5-1-442, 3-[2-[5-amino-1-[6-(2,6-difluorophenoxy)-4-methylpyridin-3-yl]pyrazolo-4-carbonyl]-5-methyl-1H-indol-6-yl]imidazolidine-2,4-dione] |
| 1.4 nM | 25 nM | 4.9 nM | Cc1cc2cc(C(=O)c3cnn(-c4cnc(Oc5c(F)cccc5F)cc4C)c3N)[nH]c2cc1N1C(=O)N[C@@H](C)C1=O [Example 5-1-443, (5S)-3-[2-[5-amino-1-[6-(2,6-difluorophenoxy)-4-methylpyridin-3-yl]pyrazole-4-carbonyl]-5-methyl-1H-indol-6-yl]-5-methylimidazolidine-2,4-dione] |
| 0.65 nM | 13 nM | 3.9 nM | Cc1cc2cc(C(=O)c3cnn(-c4ccc(Oc5ccccc5F)cc4C)c3N)[nH]c2cc1N1C(=O)N[C@@H](C)C1=O [Example 5-1-444, (5S)-3-[2-[5-amino-1-[4-(2-fluorophenoxy)-2-methylphenyl]pyrazole-4-carbonyl]-5-methyl-1H-indol-6-yl]-5-methylimidazolidine-2,4-dione] |
| 0.54 nM | 12 nM | 3.1 nM | Cc1cc(Oc2ccccc2F)ccc1-n1ncc(C(=O)c2cc3cc(F)c(N4C(=O)CNC4=O)cc3[nH]2)c1N [Example 5-1-445, 3-[2-[5-amino-1-[4-(2-fluorophenoxy)-2-methylphenyl]pyrazole-4-carbonyl]-5-fluoro-1H-indol-6-yl]imidazolidine-2,4-dione] |
| 0.44 nM | 13 nM | 2.1 nM | Cc1cc(Oc2ccccc2F)ccc1-n1ncc(C(=O)c2cc3cc(F)c(N4C(=O)N[C@@H](CO)C4=O)cc3[nH]2)c1N [Example 5-1-446, (5S)-3-[2-[5-amino-1-[4-(2-fluorophenoxy)-2-methylphenyl]pyrazole-4-carbonyl]-5-fluoro-1H-indol-6-yl]-5-(hydroxymethyl)imidazolidine-2,4-dione] |
| 2 nM | 84 nM | 12 nM | Cc1cc(Oc2ccccc2F)ccc1-n1ncc(C(=O)c2cc3cc(F)c(N4C(=O)N[C@@H](C(C)C)C4=O)cc3[nH]2)c1N [Example 5-1-447, (5S)-3-[2-[5-amino-1-[4-(2-fluorophenoxy)-2-methylphenyl]pyrazole-4-carbonyl]-5-fluoro-1H-indol-6-yl]-5-propan-2-ylimidazolidine-2,4-dione] |
| 1.2 nM | 23 nM | 3.9 nM | Cc1cc(Oc2ccccc2F)ccc1-n1ncc(C(=O)c2cc3cc(F)c(N4C(=O)[C@@H]5CCCN5C4=O)cc3[nH]2)c1N [Example 5-1-448, (7aS)-2-[2-[5-amino-1-[4-(2-fluorophenoxy)-2-methylphenyl]pyrazole-4-carbonyl]-5-fluoro-1H-indol-6-yl]-5,6,7,7a-tetrahydropyrrolo [1,2-c]imidazole-1,3-dione] |
| 0.66 nM | 13 nM | 3.3 nM | Cc1cc(Oc2ccccc2F)ccc1-n1ncc(C(=O)c2cc3cc(F)c(N4C(=O)[C@@H]5C[C@@H](O)CN5C4=O)cc3[nH]2)c1N [Example 5-1-449, (6R,7aS)-2-[2-[5-amino-1-[4-(2-fluorophenoxy)-2-methylphenyl]pyrazole-4-carbonyl]-5-fluoro-1H-indol-6-yl]-6-hydroxy-5,6,7,7a-tetrahydropyrrolo[1,2-c]imidazole-1,3-dione] |
| 3 nM | 150 nM | 22 nM | Cc1cc(Oc2ccccc2F)ccc1-n1ncc(C(=O)c2cc3cc(F)c(N4C(=O)NC5(CCCCC5)C4=O)cc3[nH]2)c1N [Example 5-1-450, 3-[2-[5-amino-1-[4-(2-fluorophenoxy)-2-methylphenyl]pyrazole-4-carbonyl]-5-fluoro-1H-indol-6-yl]-1,3-diazaspiro[4.5]decane-2,4-dione] |
| 0.89 nM | 41 nM | 4.6 nM | Cc1cc2cc(C(=O)c3cnn(-c4cnc(Oc5c(F)cccc5F)cc4C)c3N)[nH]c2cc1N1C(=O)N[C@@H](CO)C1=O [Example 5-1-451, (5S)-3-[2-[5-amino-1-[6-(2,6-difluorophenoxy)-4-methylpyridin-3-yl]pyrazole-4-carbonyl]-5-methyl-1H-indol-6-yl]-5-(hydroxymethyl) imidazolidine-2,4-dione] |
